Measured values as given in article PMC9501014, “Amaryllidaceae-Type Alkaloids from Pancratium maritimum: Apoptosis-Inducing Effect and Cell Cycle Arrest on Triple-Negative Breast Cancer Cells” (Molecules, 2022).

Columns and labels:
Format in all cases: cell-based, human
MDA-MB-231 cells [1] = experiment: Combination therapy with etoposide (SRB, CompuSyn), MDA-MB-231
Protocol: (§1) The effect of 1.5 μM of compound 7 in combination with a range of concentrations of etoposide was evaluated after 48 h of treatment using CompuSyn software to calculate the combination index (CI) values for each combined treatment: CI < 1, synergy; 1 < CI < 1.1, additive effect; CI > 1.1, antagonism.
(§2) The effect of combined treatments on cell proliferation was analyzed by SRB assay. For each combination, the combination index (CI) values were calculated using the CompuSyn Software version 1.0; CI values < 1, 1 < CI < 1.1, and >1.1 indicate synergistic, additive, and antagonistic effects, respectively.

[2] = system: Bax, Bcl-xL, p21, p53 protein expression in MDA-MB-231 cells; experiment: Western blot analysis of protein expression levels; settings: 16 µM, 48 h
Protocol: Once compound 7 induced cancer cell death by apoptosis, we next explored the molecular pathways involved in its apoptotic effect. For that, some apoptotic-related proteins were checked in MDA-MB-231 cells treated with 16 µM of compound 7 for 48 h (Figure 2E,F).
MDA-MB-231 cells were seeded in 6-well plates at a density of 1.5 × 10^5 cells/well for 24 h, followed by treatment with 16 µM of compound 7. Protein extracts were quantified using the Bradford reagent (Sigma-Aldrich). Proteins were run in SDS-PAGE and transferred to a Whatman nitrocellulose membrane from Protan (VWR, Carnaxide, Portugal). After blocking, proteins were identified using specific primary antibodies: rabbit polyclonal anti-p21 (Santa Cruz Biotechnology, Dallas, […], USA), rabbit polyclonal anti-Bax, and rabbit monoclonal anti-Bcl-xL (Invitrogen, Waltham, MA, USA), followed by the respective anti-mouse/anti-rabbit HRP-conjugated secondary antibodies (Santa Cruz Biotechnology). GAPDH was used as a loading control. The signal was detected with the ECL Amersham kit from GE Healthcare (VWR, Carnaxide, Portugal). Two detection methods were used: the Kodak GBX developer and fixer (Sigma-Aldrich) or the ChemiDoc™ XRS Imaging System from Bio-Rad Laboratories (Amadora, Portugal).

MDA-MB-231 cells [3] = experiment: Cell cycle analysis by flow cytometry (PI); settings: 16 µM (2 × IC50), vs vehicle control; 24 h / 48 h
Protocol: To explore the ability of compound 7 to regulate cell cycle progression, the percentage of cells in different phases was analyzed after 24 h of exposure.
Figure 2 Compound 7 induced cell cycle arrest, apoptosis, and ROS production, in MDA-MB-231 cells. […] (B) Effect of 16 µM of compound 7 on cell cycle progression after 48 h of treatment in MDA-MB-231 cells; the percentage of cells in each phase of the cell cycle was analyzed by flow cytometry, using PI; data are mean ± SEM of three independent experiments. […] (C) Effect of 16 µM of compound 7 on apoptosis after 48 h of treatment; the percentage of Annexin-positive cells was analyzed by flow cytometry using PI and Annexin-V staining; data are mean ± SEM of three independent experiments. […] (F) The graph represents the quantification of protein expression levels relative to DMSO; data are mean ± SD of three independent experiments. The ability of compound 7 to induce apoptosis in this cell line was also assessed by cytometry, using the Annexin V-FITC assay after 48 h of treatment. […]
The analyses were performed basically as described in [33]. […] The cells were then analyzed by flow cytometry, and cell cycle phases were identified and quantified using the FlowJo × 10.0.7 Software (Treestar, Ashland, OR, USA). […]

HFF-1 cells = experiment: Combination therapy with etoposide (SRB, CompuSyn), HFF-1; settings: for Combination Index HFF-1: 48 h
Protocol: as §1, §2

SMILES: COc1cc2c(cc1O)C(=O)OC1[C@@H](O)C=C3CCN(C)C3[C@]21O (stereo partly drawn) [Compound 7, 2α-10bα-dihydroxy-9-O-demethylhomolycorine]
- Combination Index MDA-MB-231 (MDA-MB-231 cells [1]; 1.5 µM compound 7 + etoposide 0.4 µM, 48 h): 1.23
- Combination Index MDA-MB-231 (MDA-MB-231 cells [1]; 1.5 µM compound 7 + etoposide 0.8 µM, 48 h): 0.87
- Combination Index MDA-MB-231 (MDA-MB-231 cells [1]; 1.5 µM compound 7 + etoposide 1.5 µM, 48 h): 0.81
- Combination Index MDA-MB-231 (MDA-MB-231 cells [1]; 1.5 µM compound 7 + etoposide 3 µM, 48 h): 0.86
- type of interaction with etoposide, MDA-MB-231 (MDA-MB-231 cells [1]; 1.5 µM compound 7, etoposide 0.8, 1.5 and 3 µM): synergistic effects
- effect on growth inhibitory effect of etoposide (MDA-MB-231 cells [1]; 1.5 µM compound 7, etoposide 0.8, 1.5 and 3 µM, 48 h): significantly increased the growth inhibitory effect of etoposide
- Bax protein levels ([2]; MDA-MB-231): increased levels
- Bcl-xL protein levels ([2]; MDA-MB-231): reduced levels
- p21 protein levels ([2]; MDA-MB-231): increased the p21 protein levels
- p53 protein expression levels ([2]; MDA-MB-231, data not shown): did not interfere
- cell cycle progression (MDA-MB-231 cells [3]): significant accumulation of cells in the G2/M phase
- Combination Index HFF-1 (HFF-1 cells; 1.5 µM compound 7 + etoposide 0.4 µM): 1.19
- Combination Index HFF-1 (HFF-1 cells; 1.5 µM compound 7 + etoposide 0.8 µM): 1.34
- Combination Index HFF-1 (HFF-1 cells; 1.5 µM compound 7 + etoposide 1.5 µM): 1.12
- Combination Index HFF-1 (HFF-1 cells; 1.5 µM compound 7 + etoposide 3 µM): 1.09
- type of interaction with etoposide, HFF-1 (HFF-1 cells; same experimental conditions as in MDA-MB-231 cells): no synergistic effects
